Values after ≈ are worked out from the molar mass of the structure shown.

The values that follow come from ChEMBL document CHEMBL4024763, “Discovery and Optimization of Pyrrolopyrimidine Inhibitors of Interleukin-1 Receptor Associated Kinase 4 (IRAK4) for the Treatment of Mutant MYD88L265P Diffuse Large B-Cell Lymphoma” (J Med Chem, 2017).

A short description of series [1]: Lipophilicity, log D of the compound at pH 7.4 by shake flask method. In kind it is physicochemical. As to conditions: buffer.
A short description of series [2]: Drug excretion in bile duct cannulated rat urine at 2 mg/kg, iv. In kind it is ADME, organism-based. As to conditions: read-out: Drug excretion.
The nature of series [3]: Drug excretion in bile duct cannulated rat bile at 2 mg/kg, iv. In kind it is ADME, organism-based. As to conditions: read-out: Drug excretion.
Series [4] is described as follows: Aqueous solubility of the compound at pH 7.4 at 25 degC. In kind it is physicochemical. The conditions noted are these: buffer.

Consider `CN(C)[C@H]1CC[C@H](Nc2ncnc3sc4c(c23)CCC4)CC1`, for which, in series [1] (read-out: logD), the logD (usually lipophilicity at a set pH, counting ionised and neutral species) worked out at 1.2.

Take `CN(C)[C@H]1CC[C@H](Nc2ncnc3[nH]cc(C4CCCOC4)c23)CC1` (some centres not stated): the logD in series [1] (read-out: logD) worked out at 0.3.

Turning to `CN(C)[C@H]1CC[C@H](Nc2ncnc3[nH]cc(C(F)(F)F)c23)CC1`, the pH-dependent lipophilicity (logD) in series [1] (read-out: logD) stood at 1.5.

Take `c1nc(N[C@H]2CC[C@H](N3CCOCC3)CC2)c2c(C3CCOCC3)c[nH]c2n1`: the dose excreted in series [2] amounted to 27%; in series [3] it was 2%.

Consider `c1nc(O[C@H]2CC[C@H](N3CCOCC3)CC2)c2c(C3CCOCC3)c[nH]c2n1`, for which, in series [1] (read-out: logD), the logD was 2.4.

In the case of `Cc1sc2ncnc(N[C@H]3CC[C@H](N(C)C)CC3)c2c1C`, the logD in series [1] (read-out: logD) is 0.7.

`CN(C)[C@H]1CC[C@H](N(C)c2ncnc3[nH]cc(C4CCOCC4)c23)CC1`: in series [1] (read-out: logD), the logD was determined as 0.6.

Take `CCc1c[nH]c2ncnc(N[C@H]3CC[C@H](N(C)C)CC3)c12`: in series [1] (read-out: logD), the logD was 0.6.

For the molecule `CN(C)[C@H]1CC[C@H](Nc2ncnc3[nH]cc(C4CCC4)c23)CC1`, the logD in series [1] (read-out: logD) is 1.5.

With `N#Cc1cnc2[nH]cc(C3CCOCC3)c2c1N[C@H]1CC[C@H](N2CCOCC2)CC1`, in series [1] (read-out: logD), the logD turned out to be 2.3.

In the case of `Cc1csc2ncnc(N[C@H]3CC[C@H](N(C)C)CC3)c12`, the logD in series [1] (read-out: logD) worked out at 0.3.

With `Cc1cc2c(N[C@H]3CC[C@H](N(C)C)CC3)ncnc2[nH]1`, the pH-dependent lipophilicity (logD) in series [1] (read-out: logD) was -0.2.

Regarding `c1nc(S[C@H]2CC[C@H](N3CCOCC3)CC2)c2c(C3CCOCC3)c[nH]c2n1`, the logD in series [1] (read-out: logD) is 3. The solubility (in general, how much of the substance goes into solution per volume) in series [4] turned out to be 5 µM (≈ 2.01 µg/mL).

For the molecule `CN(C)[C@H]1CC[C@H](Nc2ncnc3[nH]c4c(c23)CCC4)CC1`, in series [1] (read-out: logD), the logD came out at 0.5.

Turning to `CN(C)[C@H]1CC[C@H](Nc2ncnc3[nH]cc(C4CC4)c23)CC1`, the logD in series [1] (read-out: logD) worked out at 0.9.

With `CN(C)[C@H]1CC[C@H](Nc2ncnc3[nH]ccc23)CC1`, in series [1] (read-out: logD), the logD was -0.6.

For `Cc1cc2c(N[C@H]3CC[C@H](N(C)C)CC3)ncnc2s1`, in series [1] (read-out: logD), the logD turned out to be 0.6.

Take `CN(C)[C@H]1CC[C@H](Oc2ncnc3[nH]cc(C4CCOCC4)c23)CC1`: the logD in series [1] (read-out: logD) turned out to be 1.2.

With `CN(C)[C@H]1CC[C@H](Nc2ncnc3[nH]cc(C4CCCC4)c23)CC1`, the logD in series [1] (read-out: logD) turned out to be 1.7.

`CN(C)[C@H]1CC[C@H](Nc2ncnc3sccc23)CC1`: the pH-dependent lipophilicity (logD) in series [1] (read-out: logD) worked out at 0.1.

Take `c1cc(N[C@H]2CC[C@H](N3CCOCC3)CC2)c2c(C3CCOCC3)c[nH]c2n1`: the logD in series [1] (read-out: logD) is 1.7.

For `Cc1[nH]c2ncnc(N[C@H]3CC[C@H](N(C)C)CC3)c2c1C`, the logD in series [1] (read-out: logD) was found to be 0.6.

As for `CN(C)[C@H]1CC[C@H](Nc2ncnc3[nH]cc(C4CCCO4)c23)CC1` (stereo in doubt; 18a), in series [1] (read-out: logD), the logD was 0.4.

Turning to `CN(C)[C@H]1CC[C@H](Nc2ncnc3[nH]cc(C4CCCO4)c23)CC1` (stereo in doubt; 18b), in series [1], the logD amounted to 0.3.

Regarding `CN(C)[C@H]1CC[C@H](Nc2ncnc3[nH]cc(C4CCOC4)c23)CC1` (stereo in doubt; 19a), the pH-dependent lipophilicity (logD) in series [1] (read-out: logD) worked out at 0.1.
